Test results as given in ChEMBL document CHEMBL3751764, “Synthesis and in vitro antiproliferative activity of novel pyrazolo[3,4-d]pyrimidine derivatives” (Medchemcomm, 2015).
Calls of active or inactive are those of the source. No cut-off for these calls is given here.

What was measured:
[1] = biological target: Epidermal growth factor receptor (Homo sapiens) (UniProt P00533); experiment: Inhibition of human EGFR at 10 uM after 20 to 40 mins by liquid scintillation counting analysis in presence of […]
[2] = Cytotoxicity against human BT549 cells assessed as cell growth at 10 uM after 72 hrs by SRB assay relative to control; type: functional; settings: BT-549, 72 h, read-out: Activity
[3] = Cytotoxicity against human HOP62 cells assessed as cell growth at 10 uM after 72 hrs by SRB assay relative to control; type: functional; settings: HOP-62, 72 h, read-out: Activity
[4] = Cytotoxicity against human SNB19 cells assessed as cell growth at 10 uM after 72 hrs by SRB assay relative to control; type: functional; settings: SNB-19, 72 h, read-out: Activity
[5] = Cytotoxicity against human HL-60(TB) cells assessed as cell growth at 10 uM after 72 hrs by SRB assay relative to control; type: functional; settings: HL-60, 72 h, read-out: Activity
[6] = system: HT-29; experiment: Cytotoxicity against human HT-29 cells assessed as cell growth at 10 uM after 72 hrs by SRB assay relative to control; type: functional; settings: HT-29, 72 h, read-out: Activity
[7] = system: NCI-H226; experiment: Cytotoxicity against human NCI-H226 cells assessed as cell growth at 10 uM after 72 hrs by SRB assay relative to control; type: functional; settings: NCI-H226, 72 h, read-out: Activity
[8] = system: KM12; experiment: Cytotoxicity against human KM12 cells assessed as cell growth at 10 uM after 72 hrs by SRB assay relative to control; type: functional; settings: KM12, 72 h, read-out: Activity
[9] = Cytotoxicity against human UACC62 cells assessed as cell growth at 10 uM after 72 hrs by SRB assay relative to control; type: functional; settings: UACC-62, 72 h, read-out: Activity
[10] = biological target: Vascular endothelial growth factor receptor 2 (Homo sapiens, UniProt P35968); experiment: Inhibition of human VEGFR2 at 10 uM after 20 to 40 mins by liquid scintillation counting analysis in presence of […]; parameters: scale not given: the % may be the effect or the level left
[11] = Cytotoxicity against human PC3 cells assessed as cell growth at 10 uM after 72 hrs by SRB assay relative to control; type: functional; settings: PC-3, 72 h, read-out: Activity
[12] = system: A549; experiment: Cytotoxicity against human A549 cells assessed as cell growth at 10 uM after 72 hrs by SRB assay relative to control; type: functional; settings: A549, 72 h, read-out: Activity
[13] = system: CCRF-CEM; experiment: Cytotoxicity against human CCRF-CEM cells assessed as cell growth at 10 uM after 72 hrs by SRB assay relative to control; type: functional; settings: read-out: Activity
[14] = Cytotoxicity against human RXF393 cells assessed as cell growth at 10 uM after 72 hrs by SRB assay relative to control; type: functional; settings: RXF 393, 72 h, read-out: Activity
[15] = system: NCI-H322M; experiment: Cytotoxicity against human NCI-H322M cells assessed as cell growth at 10 uM after 72 hrs by SRB assay relative to control; type: functional; settings: read-out: Activity
[16] = system: SK-MEL-5; experiment: Cytotoxicity against human SK-MEL-5 cells assessed as cell growth at 10 uM after 72 hrs by SRB assay relative to control; type: functional; settings: SK-MEL-5, 72 h, read-out: Activity
[17] = Cytotoxicity against human SF539 cells assessed as cell growth at 10 uM after 72 hrs by SRB assay relative to control; type: functional; settings: SF-539, 72 h, read-out: Activity
[18] = Cytotoxicity against human RPMI8226 cells assessed as cell growth at 10 uM after 72 hrs by SRB assay relative to control; type: functional; settings: RPMI-8226, 72 h, read-out: Activity
[19] = Cytotoxicity against human OVCAR5 cells assessed as cell growth at 10 uM after 72 hrs by SRB assay relative to control; type: functional; settings: OVCAR-5, 72 h, read-out: Activity
[20] = Cytotoxicity against human HCT116 cells assessed as cell growth at 10 uM after 72 hrs by SRB assay relative to control; type: functional; settings: HCT-116, 72 h, read-out: Activity
[21] = Cytotoxicity against human UACC257 cells assessed as cell growth at 10 uM after 72 hrs by SRB assay relative to control; type: functional; settings: UACC-257, 72 h, read-out: Activity
[22] = system: NCI-H23; experiment: Cytotoxicity against human NCI-H23 cells assessed as cell growth at 10 uM after 72 hrs by SRB assay relative to control; type: functional; settings: NCI-H23, 72 h, read-out: Activity
[23] = Cytotoxicity against human NCI-ADR-RES cells assessed as cell growth at 10 uM after 72 hrs by SRB assay relative to control; type: functional; settings: read-out: Activity
[24] = system: MDA-MB-468; experiment: Cytotoxicity against human MDA-MB-468 cells after 72 hrs by SRB assay; type: functional; settings: MDA-MB-468, 72 h
[25] = Cytotoxicity against human UO31 cells after 72 hrs by SRB assay; type: functional; settings: UO-31, 72 h
[26] = system: A549; experiment: Cell cycle arrest in human A549 cells assessed as accumulation at G0/G1 phase at IC50 after 48 hrs by FACS flow cytometric analysis relative to control; type: functional
[27] = system: ACHN; experiment: Cytotoxicity against human ACHN cells after 72 hrs by SRB assay; type: functional
[28] = Cytotoxicity against human OVCAR3 cells after 72 hrs by SRB assay; type: functional; settings: OVCAR-3, 72 h
[29] = Cytotoxicity against human RPMI8226 cells after 72 hrs by SRB assay; type: functional; settings: RPMI-8226, 72 h
[30] = Cytotoxicity against human RXF393 cells after 72 hrs by SRB assay; type: functional; settings: RXF 393, 72 h
[31] = Cytotoxicity against human SW620 cells after 72 hrs by SRB assay; type: functional; settings: SW-620, 72 h
[32] = Cytotoxicity against human HOP62 cells after 72 hrs by SRB assay; type: functional; settings: HOP-62, 72 h
[33] = Cytotoxicity against human MOLT4 cells after 72 hrs by SRB assay; type: functional; settings: MOLT-4, 72 h
[34] = system: MDA-MB-231; experiment: Cytotoxicity against human MDA-MB-231 cells after 72 hrs by SRB assay; type: functional; settings: MDA-MB-231, 72 h
[35] = system: SR; experiment: Cytotoxicity against human SR cells after 72 hrs by SRB assay; type: functional
[36] = read-out: LC50 (the source's name)

Chain of Vascular endothelial growth factor receptor 2 (P35968 whole entry): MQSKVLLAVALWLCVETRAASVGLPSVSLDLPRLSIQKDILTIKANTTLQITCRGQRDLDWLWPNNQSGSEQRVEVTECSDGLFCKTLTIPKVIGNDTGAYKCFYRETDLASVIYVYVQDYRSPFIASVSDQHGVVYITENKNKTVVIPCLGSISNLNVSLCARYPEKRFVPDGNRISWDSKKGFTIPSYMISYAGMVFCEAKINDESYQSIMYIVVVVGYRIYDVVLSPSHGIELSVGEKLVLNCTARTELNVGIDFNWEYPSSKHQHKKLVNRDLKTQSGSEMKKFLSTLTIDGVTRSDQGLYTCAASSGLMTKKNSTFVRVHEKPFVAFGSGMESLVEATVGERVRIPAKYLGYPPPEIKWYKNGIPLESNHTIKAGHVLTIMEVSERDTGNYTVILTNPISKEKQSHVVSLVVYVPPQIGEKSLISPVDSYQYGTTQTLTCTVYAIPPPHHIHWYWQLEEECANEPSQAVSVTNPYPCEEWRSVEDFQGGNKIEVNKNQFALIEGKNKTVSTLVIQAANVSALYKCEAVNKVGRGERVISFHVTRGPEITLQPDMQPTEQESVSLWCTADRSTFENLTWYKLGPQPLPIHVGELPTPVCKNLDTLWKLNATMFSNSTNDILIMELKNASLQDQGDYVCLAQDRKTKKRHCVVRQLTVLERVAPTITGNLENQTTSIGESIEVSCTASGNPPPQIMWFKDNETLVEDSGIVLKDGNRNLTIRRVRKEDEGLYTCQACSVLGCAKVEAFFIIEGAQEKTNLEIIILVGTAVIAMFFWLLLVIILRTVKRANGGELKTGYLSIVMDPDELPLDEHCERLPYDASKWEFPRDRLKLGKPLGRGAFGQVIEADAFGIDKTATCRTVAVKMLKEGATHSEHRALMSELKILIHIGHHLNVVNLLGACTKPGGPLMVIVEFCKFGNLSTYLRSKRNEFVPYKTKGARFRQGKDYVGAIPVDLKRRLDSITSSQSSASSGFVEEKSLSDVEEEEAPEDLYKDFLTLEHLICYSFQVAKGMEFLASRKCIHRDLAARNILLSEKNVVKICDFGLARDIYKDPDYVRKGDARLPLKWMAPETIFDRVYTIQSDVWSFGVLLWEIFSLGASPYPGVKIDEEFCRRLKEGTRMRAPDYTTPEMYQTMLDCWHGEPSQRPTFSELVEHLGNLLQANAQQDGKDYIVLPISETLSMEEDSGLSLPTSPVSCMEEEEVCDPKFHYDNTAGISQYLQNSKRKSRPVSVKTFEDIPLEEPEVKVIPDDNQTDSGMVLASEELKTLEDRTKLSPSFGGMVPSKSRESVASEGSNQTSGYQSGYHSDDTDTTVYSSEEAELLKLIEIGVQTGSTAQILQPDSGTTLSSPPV
Chain of Epidermal growth factor receptor (Homo sapiens) (P00533 whole entry): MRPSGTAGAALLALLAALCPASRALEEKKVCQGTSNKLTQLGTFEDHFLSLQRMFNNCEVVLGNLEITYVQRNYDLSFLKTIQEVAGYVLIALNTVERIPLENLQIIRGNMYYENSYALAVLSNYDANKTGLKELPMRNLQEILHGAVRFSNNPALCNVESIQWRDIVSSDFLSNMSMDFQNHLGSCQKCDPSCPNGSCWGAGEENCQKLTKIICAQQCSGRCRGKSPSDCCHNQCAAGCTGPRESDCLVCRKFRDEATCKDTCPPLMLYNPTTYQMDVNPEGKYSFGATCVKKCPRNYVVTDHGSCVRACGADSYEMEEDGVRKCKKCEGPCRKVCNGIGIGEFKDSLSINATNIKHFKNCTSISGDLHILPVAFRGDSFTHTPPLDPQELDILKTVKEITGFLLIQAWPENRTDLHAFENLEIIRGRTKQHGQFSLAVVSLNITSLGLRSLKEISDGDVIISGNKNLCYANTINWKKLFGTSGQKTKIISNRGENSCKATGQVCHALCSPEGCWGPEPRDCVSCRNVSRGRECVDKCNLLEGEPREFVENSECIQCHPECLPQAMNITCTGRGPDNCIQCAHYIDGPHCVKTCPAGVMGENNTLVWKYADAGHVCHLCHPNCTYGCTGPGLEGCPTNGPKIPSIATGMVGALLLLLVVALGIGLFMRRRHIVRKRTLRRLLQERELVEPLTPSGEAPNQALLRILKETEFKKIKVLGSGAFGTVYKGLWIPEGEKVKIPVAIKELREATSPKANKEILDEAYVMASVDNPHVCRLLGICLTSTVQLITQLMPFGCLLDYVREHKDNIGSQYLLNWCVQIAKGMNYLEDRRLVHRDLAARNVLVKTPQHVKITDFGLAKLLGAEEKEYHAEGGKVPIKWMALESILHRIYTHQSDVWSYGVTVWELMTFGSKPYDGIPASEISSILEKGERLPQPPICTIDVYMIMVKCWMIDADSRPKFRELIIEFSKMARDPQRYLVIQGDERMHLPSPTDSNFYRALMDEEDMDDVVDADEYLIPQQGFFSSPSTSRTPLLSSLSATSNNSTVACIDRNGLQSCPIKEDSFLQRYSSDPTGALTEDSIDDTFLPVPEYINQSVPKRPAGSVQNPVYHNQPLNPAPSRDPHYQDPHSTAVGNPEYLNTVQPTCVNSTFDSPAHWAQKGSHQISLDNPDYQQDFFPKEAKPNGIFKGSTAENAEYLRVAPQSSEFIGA

With `Cc1ccc2nc(Nc3ncnc4c3cnn4-c3ccccc3)sc2c1` the inhibition [1] was “inactive”, the growth at 10 µM [2] was 108% and the growth at 10 µM [3] was 110%. For the same compound, the growth at 10 µM [4] was 98.2%, the growth at 10 µM [5] was 103% and the growth at 10 µM [6] was 103%. The growth at 10 µM [7] was 101%, the growth at 10 µM [8] was 98.9% and the growth at 10 µM [9] was 94.7%. It also gave an Activity [10] of -1%, a growth at 10 µM [11] of 98.3% and a growth at 10 µM [12] of 102%. The growth at 10 µM [13] was 87.9%, the growth at 10 µM [14] was 99% and the growth at 10 µM [15] was 45.7%. It also gave a growth at 10 µM [16] of 92.1%, a growth at 10 µM [17] of 101% and a growth at 10 µM [18] of 102%. The growth at 10 µM [19] was 96%, the growth at 10 µM [20] was 99.4% and the growth at 10 µM [21] was 112%. It also gave a growth at 10 µM [22] of 106% and a growth at 10 µM [23] of 106%.
In the case of `Clc1ccc(-n2ncc3c(Nc4ccc(OCc5ccccc5)cc4)ncnc32)cc1`, the growth at 10 µM [2] is reported as 107%, the growth at 10 µM [3] is reported as 81.6% and the growth at 10 µM [5] is reported as 86.9%. For the same compound, the growth at 10 µM [6] was 84.7%, the growth at 10 µM [7] was 102% and the growth at 10 µM [8] was 80.2%. For the same compound, the growth at 10 µM [9] was 105%, the Activity [10] was 0% and the growth at 10 µM [11] was 86.1%. The growth at 10 µM [12] was 88.8%, the growth at 10 µM [13] was 78.9% and the growth at 10 µM [14] was 97.8%. The growth at 10 µM [15] was 75%, the growth at 10 µM [16] was 94.4% and the growth at 10 µM [17] was 92.4%. It also gave a growth at 10 µM [18] of 86.4%, a growth at 10 µM [19] of 92.8% and a growth at 10 µM [20] of 94.8%. The growth at 10 µM [21] was 102%, the growth at 10 µM [22] was 92.7% and the growth at 10 µM [23] was 94.5%.
With `O=C(NC1CCCCC1)c1ccc(Nc2ncnc3c2cnn3-c2ccccc2)cc1` the GI50 [24] was 21.7 µM, the TGI [24] was over 100 µM and the CC50 [24, 36] was over 100 µM. The growth at 10 µM [2] was 59.8%, the growth at 10 µM [3] was -66.5% and the GI50 [25] was 23.9 µM. For the same compound, the TGI [25] was over 100 µM, the CC50 [25, 36] was over 100 µM and the Activity [26] was 11.9%. For the same compound, the growth at 10 µM [4] was 48.7%, the growth at 10 µM [5] was 106% and the growth at 10 µM [6] was 70.2%. For the same compound, the GI50 [27] was 3.32 µM, the TGI [27] was 11 µM and the CC50 [27, 36] was 37 µM. For the same compound, the growth at 10 µM [7] was 19.1%, the growth at 10 µM [8] was 88.5% and the growth at 10 µM [9] was 63.9%. The Activity [10] was 7%, the growth at 10 µM [11] was 53.3% and the GI50 [28] was 14.3 µM. It also gave a TGI [28] of over 100 µM, a CC50 [28, 36] of over 100 µM and a GI50 [29] of over 100 µM. The TGI [29] was over 100 µM, the CC50 [29, 36] was over 100 µM and the growth at 10 µM [12] was 16.6%. For the same compound, the growth at 10 µM [13] was 64.9%, the growth at 10 µM [14] was 62.2% and the growth at 10 µM [15] was 64%. It also gave a GI50 [30] of 2.43 µM, a TGI [30] of 9.33 µM and a CC50 [30, 36] of 56.9 µM. For the same compound, the growth at 10 µM [16] was 75.4%, the growth at 10 µM [17] was 43.7% and the GI50 [31] was over 100 µM. It also gave a TGI [31] of over 100 µM, a CC50 [31, 36] of over 100 µM and a GI50 [32] of 2.62 µM. It also gave a TGI [32] of 8.78 µM, a CC50 [32, 36] of 37.3 µM and a growth at 10 µM [18] of 89.5%. It also gave a GI50 [33] of 75.6 µM, a TGI [33] of over 100 µM and a CC50 [33, 36] of over 100 µM. The growth at 10 µM [19] was 80.3%, the GI50 [34] was 5.09 µM and the TGI [34] was 21.9 µM. It also gave a CC50 [34, 36] of 80.6 µM, a growth at 10 µM [20] of 37.6% and a GI50 [35] of 11.6 µM. The TGI [35] was 49.1 µM, the CC50 [35, 36] was over 100 µM and the growth at 10 µM [21] was 56.5%. For the same compound, the growth at 10 µM [22] was 72% and the growth at 10 µM [23] was 74.2%.
`c1ccc(COc2ccc(Nc3ncnc4c3cnn4-c3ccccc3)cc2)cc1` gave a growth at 10 µM [2] of 106%, a growth at 10 µM [3] of 104% and a growth at 10 µM [4] of 96%. It also gave a growth at 10 µM [5] of 99.8%, a growth at 10 µM [6] of 116% and a growth at 10 µM [7] of 103%. The growth at 10 µM [8] was 98.2%, the growth at 10 µM [9] was 93.3% and the Activity [10] was -5%. For the same compound, the growth at 10 µM [11] was 88.5%, the growth at 10 µM [12] was 104% and the growth at 10 µM [13] was 80.8%. For the same compound, the growth at 10 µM [14] was 102%, the growth at 10 µM [15] was 84.1% and the growth at 10 µM [16] was 94.3%. It also gave a growth at 10 µM [17] of 99.6%, a growth at 10 µM [18] of 96.5% and a growth at 10 µM [19] of 98.9%. It also gave a growth at 10 µM [20] of 106%, a growth at 10 µM [21] of 121% and a growth at 10 µM [22] of 109%. The growth at 10 µM [23] was 107%.
With `O=c1sc2cc(Nc3ncnc4c3cnn4-c3ccccc3)ccc2n1Cc1ccc(Cl)cc1` the growth at 10 µM [2] was 101%, the growth at 10 µM [3] was 94% and the growth at 10 µM [4] was 85.6%. It also gave a growth at 10 µM [5] of 66.9%, a growth at 10 µM [6] of 106% and a growth at 10 µM [7] of 71.4%. The growth at 10 µM [8] was 71.6%, the growth at 10 µM [9] was 58.3% and the Activity [10] was -7%. The growth at 10 µM [11] was 55.6%, the growth at 10 µM [12] was 78% and the growth at 10 µM [13] was 63.6%. The growth at 10 µM [14] was 79.5%, the growth at 10 µM [15] was 75.7% and the growth at 10 µM [16] was 87.2%. The growth at 10 µM [17] was 79.2%, the growth at 10 µM [18] was 63.5% and the growth at 10 µM [19] was 75.1%. It also gave a growth at 10 µM [20] of 80.3%, a growth at 10 µM [21] of 92.6% and a growth at 10 µM [22] of 84.7%. The growth at 10 µM [23] was 84.8%.
